This is an account of results in patent EP1224299B1, “RECOMBINANT PROTEINS AND PEPTIDES FOR ENDOTOXIN BIOSENSORS, ENDOTOXIN REMOVAL, AND ANTI-MICROBIAL AND ANTI-ENDOTOXIN THERAPEUTICS” (priority 1999, dated 2001).

The subject of one series is Human erythrocytes. Description: Hemolysis assay, human erythrocytes. Format: cell-based. The settings on record: for Concentration of peptide to induce 50% haemolysis: red cells of human; for Hemolytic activity: at 100 µg/ml, 0.4% erythrocytes, 1 h. As for the experimental part:
Human and rabbit erythrocytes were both used to test the hemolytic activities of the peptides. Whole blood was collected in heparinized sterile syringe, transferred to sterile borosilicate tube and centrifuged at 1200 g for 5 minutes at 4°C. The supernatant including the leukocytes above the erythrocyte pellet was discarded. The erythrocytes were washed 3 times using three volumes of pre-chilled pyrogen-free saline (PFS). An erythrocyte suspension at 0.4% was prepared for the hemolysis assay. Serial two-fold dilutions of the peptides was prepared in PFS and 100 µl aliquots were added to equal volumes of 0.4% erythrocyte solution in a 96-well microtiter plate (Nunclon™ Δ surface, Nunc) to give final peptide concentrations ranging from 6 to 100 µg/ml. The mixtures were incubated at 37°C for 1 h. The intact erythrocytes were then pelleted by centrifuging at 1000 g for 5 min. One hundred µl of the supernatant was transferred to a new 96-well microtiter plate and the amount of hemoglobin released into the supernatant was determined by reading the absorbance at 414nm using a SPECTRAmax™ 340 plate reader with SOFTmax PRO™ version 1.2.0. A positive control with 100 µl of 0.4% erythrocyte lysed in 1% Triton-X 100 was taken as 100% lysis. The negative control was the erythrocytes in PFS alone, which gave minimal lysis. This was taken as 0%.

A short description of series [1]: LPS-induced lethality in galactosamine-sensitized mice. Format: in vivo, C57BL/6J mice. To be noted: for protection: 25 and 75 µg peptide; for decrease in LPS-induced lethality: 25 or 75 µg, pre-incubated with LPS 30 min prior to i.p. injection. As for the experimental part: The anti-endotoxin potency of SSCrFCES was investigated in C57BL/6J mice. Mice are typically resistant to endotoxin. However, the sensitivity of mice to endotoxin can be enhanced > 1,000-fold by co-injection with a liver-specific inhibitor, galactosamine (31). In our study, intraperitoneal (i.p.) injection of 2.5 ng of E. coli 055:B5 LPS together with 15 mg of galactosamine hydrochloride in 0.2 ml of saline induced nearly 100% lethality in 18-25 g C57BL/6J mice within 7 hours. Various concentrations of SSCrFCES (1, 2, and 4 µM) and synthetic peptides (25 and 75 µg) were injected intravenously (i.v.) through tail vein 10 minutes after i.p. injection of the LPS-galactosamine mixture. Lethality was observed over 3 days after injection. Statistical analysis were performed using the Kaplan-Meier test (32) and log rank pairwise test.

The nature of series [2]: Hill's plot for interaction between synthetic peptides and lipid A. Format: binding.
Series [3] relates to 30 clinical strains of P. aeruginosa. Kind of series: Microbicidal concentration (MBC) assay, 30 clinical strains. Format: cell-based. The settings on record: for MBC50: concentration of peptide required to kill 50% of the strains. On the procedure:
Test strains cultured on Mueller-Hinton agar (MHA, Becton Dickinson, USA) were inoculated into 10 ml Mueller-Hinton broth (MHB, Becton Dickinson, USA) and grown overnight at 37°C in a shaker incubator (Model 4536, Forma Scientific, Inc., USA) at 230 rpm. Overnight broth cultures were diluted to give a final cell density of 10^5 colony forming units/ml (cfu/ml). One hundred microliters of the bacterial suspension was dispensed into sterile polypropylene 8-strip PCR-tubes (Quality Scientific Plastics, USA). Eleven microliters of serially diluted sushi peptides, ranging in final concentrations of 0.03-4 µg/ml, were then added. The peptides were constituted at 10 times the required test concentrations in 0.01% acetic acid and 0.2% bovine serum albumin (BSA). Positive controls were cultures without test peptides. Uninoculated MHB was used as negative control. All tests were carried out in triplicate.
Cultures were incubated at 37°C for 18-24 h, with the PCR-tubes held in horizontal position and shaken at 230 rpm. Cell counts were determined by standard drop-count method. The killing efficiency for the four sushi peptides were calculated based on standard drop-count method.

Series [4] can be described thus: Limulus Kinetic-QCL assay, inhibition of endotoxin-induced LAL reaction. To be noted: 200 EU/ml LPS, 1 h at 37 °C, 1000-fold dilution; read-out: 50% endotoxin-neutralizing concentration (ENC50). Format: biochemical, E.coli 055:B5. From the text: The Limulus Kinetic-QCL is a quantitative, kinetic assay for the detection of gram-negative bacterial endotoxin. This assay utilizes the initial part of LAL endotoxin reaction to activate an enzyme, which in turn releases p-nitroaniline from a synthetic substrate, producing a yellow color. The time required before the appearance of a yellow color is inversely proportional to the amount of endotoxin present. Throughout the assay, the absorbance at 405 nm of each well of the microplate was monitored. Using the initial absorbance reading of each well as its own blank, the time required for the absorbance to increase 0.200 absorbance units were calculated as Reaction Time.
Briefly, 25 µl of endotoxin solution (LPS, E.coli 055:B5) at 200 EU/ml was mixed with an equal volume of SSCrFCES at 1 µM, in a series of 2-fold dilutions in LAL reagent water in disposable endotoxin-free glass dilution tubes (BioWhittaker) and incubated at 37°C for one hour. […] The endotoxin activity was then quantified with Limulus Kinetic-QCL. […] The plate was then pre-incubated for > 10 minutes in a temperature-controlled ELISA plate reader. […] The absorbance at 405 nm of each well of the microtitre plate was monitored at time intervals of 5 minutes over a period of 2 hours. A 5 second automix was activated prior to reading. […]
The high sensitivity of the assay allowed for very low levels of endotoxin to be detected. […]

A further series deals with P. aeruginosa ATCC 27853. Kind of series: Killing rate assay. Format: cell-based. To be noted: 0.06 µg/ml, initial 10^9 cfu/ml; concentration achieving MBC90. The text has this: The killing rate assay was adapted from the MBC test above, with different contact time of peptides with the bacteria arrested at regular intervals and plated for colony count. An initial density of 10^9 cfu/ml was used. […] This is one of the important features of an effective therapeutic agent.

The conditions of series [5]: ligand LPS S. minnesota Re595; read-out: Equilibrium constant; cited from earlier work.
The test system of the next series is P.aeruginosa. The settings on record: cited from earlier work.

Read-outs that look alike come from different tables or passages of the source. Ends that are not written are not given here. Peptide text beside a SMILES is read from it.

Consider `CC[C@H](C)[C@H](NC(=O)[C@H](CCCNC(=N)N)NC(=O)[C@H](C)NC(=O)[C@H](CCSC)NC(=O)CNC(=O)[C@H](CCCCN)NC(=O)[C@H](CC(C)C)NC(=O)[C@H](CCCCN)NC(=O)[C@H](Cc1ccccc1)NC(=O)CN)C(=O)N[C@@H](CO)C(=O)N[C@@H](CS)C(=O)N[C@@H](CC(C)C)C(=O)N1CCC[C@H]1C(=O)N[C@@H](CC(N)=O)C(=O)NCC(=O)N[C@@H](CCC(N)=O)C(=O)N[C@@H](Cc1c[nH]c2ccccc12)C(=O)N[C@@H](CO)C(=O)N[C@@H](CC(N)=O)C(=O)N[C@@H](Cc1ccccc1)C(=O)N1CCC[C@H]1C(=O)N1CCC[C@H]1C(=O)N[C@@H](CCCCN)C(=O)N[C@@H](CS)C(=O)N[C@H](C(=O)N[C@@H](CCCNC(=N)N)C(=O)N[C@@H](CCC(=O)O)C(=O)N[C@@H](CS)C(=O)N[C@@H](C)C(=O)N[C@@H](CCSC)C(=O)N[C@H](C(=O)N[C@@H](CO)C(=O)N[C@@H](CO)C(=O)O)C(C)C)[C@@H](C)CC` [S1] (H-GFKLKGMARISCLPNGQWSNFPPKCIRECAMVSS-OH; N-terminus and C-terminus assumed), for which the “Concentration of peptide to induce 50% haemolysis” value with Human erythrocytes was found to be 290 µg/mL. In series [1], the protection is given as 22-100% and the “decrease in LPS-induced lethality” value is on record as 20-55%. For the same molecule, the “Hill's plot co-operativity n” value in series [2] turned out to be 2.42. In series [3], the MBC90 worked out at 0.008 µM and the MBC50 was at most 0.03 µg/mL. Also, the EC50 in series [4] turned out to be 2250 nM. Besides, the “Killing rate (time to MBC90)” value with P. aeruginosa ATCC 27853 came to 7 min.

`CC[C@H](C)[C@H](NC(=O)[C@H](CCCCN)NC(=O)[C@H](C)NC(=O)[C@H](CCCCN)NC(=O)CNC(=O)[C@H](CCCCN)NC(=O)[C@H](CC(C)C)NC(=O)[C@H](CCCCN)NC(=O)[C@H](Cc1ccccc1)NC(=O)CN)C(=O)N[C@@H](CO)C(=O)N[C@@H](CS)C(=O)N[C@@H](CC(C)C)C(=O)N1CCC[C@H]1C(=O)N[C@@H](CC(N)=O)C(=O)NCC(=O)N[C@@H](CCC(N)=O)C(=O)N[C@@H](Cc1c[nH]c2ccccc12)C(=O)N[C@@H](CO)C(=O)N[C@@H](CC(N)=O)C(=O)N[C@@H](Cc1ccccc1)C(=O)N1CCC[C@H]1C(=O)N1CCC[C@H]1C(=O)N[C@@H](CCCCN)C(=O)N[C@@H](CS)C(=O)N[C@H](C(=O)N[C@@H](CCCNC(=N)N)C(=O)N[C@@H](CCC(=O)O)C(=O)N[C@@H](CS)C(=O)N[C@@H](C)C(=O)N[C@@H](CCSC)C(=O)N[C@H](C(=O)N[C@@H](CO)C(=O)N[C@@H](CO)C(=O)O)C(C)C)[C@@H](C)CC` [S1Δ] (H-GFKLKGKAKISCLPNGQWSNFPPKCIRECAMVSS-OH; N-terminus and C-terminus assumed): the “Concentration of peptide to induce 50% haemolysis” value in the series on Human erythrocytes came out at 295 µg/mL. Moreover, in series [1], the protection was 22-100% and the “decrease in LPS-induced lethality” value is 20-55%. In series [3], this molecule displayed an MBC90 of 0.016 µM and an MBC50 of at most 0.03 µg/mL. The molecule further returned an MBC90 in series [3] (concentration of peptide required to kill 90% of the strains) of 0.06 µg/mL. Also, in series [4], the EC50 is 875 nM. In addition, in the series on P. aeruginosa ATCC 27853, the “Killing rate (time to MBC90)” value is 7 min.

As for “BPI pep85-99 (15 mer): 15 mer peptide of BPI (IKISGKWKAQKRFLK; UniProt P17213 116-130, looked up, fragment)”, the Kd in series [5] is 1760 nM.

Consider HAEHKVKIGVEQKYGQFPQGTEVTYTCSGNYFLM [S3], for which the “Concentration of peptide to induce 50% haemolysis” value in the series with Human erythrocytes came out at 160 µg/mL.

As to “HAEHKVKIKVKQKYGQFPQGTEVTYTCSGNYFLM [S3Δ]”, the Hemolytic activity with Human erythrocytes turned out to be 35%; with Human erythrocytes (listed as SΔ3) it was 35% at 100 µg/ml. The “Concentration of peptide to induce 50% haemolysis” value in the series with Human erythrocytes turned out to be 120 µg/mL.

Turning to “Indolicin: cationic peptide (ILPWKWPWWPWRR; ends and bridges not checked; UniProt P33046 131-143, looked up)”, in the series with P.aeruginosa, the MBC50 is 64 µg/mL and the MBC90 was above 128 µg/mL.

Regarding Magainin II, the MBC50 with P.aeruginosa was 64 µg/mL.

Nisin: the MBC50 in the series on P.aeruginosa was 128 µg/mL.

Regarding Ranalexin, the MBC50 with P.aeruginosa is above 128 µg/mL.
